Test [1] concerns C57BL/6J mice. In words: Open field locomotion in mice. Format: in vivo. The note with it: i.p. The method, then: (§1) Open field: this apparatus has been described in the literature (Acta Crystallographica Section D, 2010, 66:486-501). Mice were placed into the open field for 30 min, injected with vehicle, (+)-LSD-(+)-tartrate (NIDA Drug Supply Program, Bethesda, MID), 38, or 33 (i.p.), and returned immediately to the open field for 30 min. Locomotion was monitored using Fusion Integra software (Omnitech, Columbus, OH).
(§2) Statistics: Statistical analyses were performed with IBM SPSS Statistics 27 programs (IBM, Chicago, IL). The data are presented as means and standard errors of the mean. No sex effects were detected. One- or two-way ANOVA or repeated measures ANOVA (RMANOVA) were used, followed by Bonferroni corrected post-hoc analyses. A p<0.05 was considered significant. All behavioral results were plotted using GraphPad Prism.

Test [2] concerns C57BL/6J mice. In words: Head twitch response (HTR) in mice. In kind it is in vivo. The note with it: first 30 min after injection (i.p.). The method, then: as §1
Head twitch response: HTRs were filmed in the open field and were scored following drug administration for 30 min as described in the literature (Acta Crystallographica Section D, 2019, 75:861-877).
as §2

The target of test [3] is T1, 5-HT2BR (Homo sapiens, UniProt P41595).
T1 construct: expressed in transfected cells; host or cells: Flp-In 293 T-Rex (tetracycline inducible)
T1 sequence (P41595 whole entry): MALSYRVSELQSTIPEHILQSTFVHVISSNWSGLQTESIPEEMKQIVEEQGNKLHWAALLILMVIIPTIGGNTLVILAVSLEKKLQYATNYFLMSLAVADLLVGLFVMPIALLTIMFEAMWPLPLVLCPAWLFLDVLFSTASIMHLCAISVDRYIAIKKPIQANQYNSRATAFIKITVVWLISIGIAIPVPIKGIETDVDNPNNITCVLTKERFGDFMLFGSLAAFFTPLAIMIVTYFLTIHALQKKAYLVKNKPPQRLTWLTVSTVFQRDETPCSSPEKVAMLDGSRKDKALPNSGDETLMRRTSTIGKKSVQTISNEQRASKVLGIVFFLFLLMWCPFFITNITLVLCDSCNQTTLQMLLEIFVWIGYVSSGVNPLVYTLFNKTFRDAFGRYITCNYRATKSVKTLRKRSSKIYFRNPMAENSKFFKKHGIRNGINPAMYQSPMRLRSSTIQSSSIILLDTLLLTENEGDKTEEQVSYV
Briefly: Calcium flux assay (FLIPR, Fluo-4), 5-HT2BR stable cell line. In kind it is cell-based. Particulars: for EC50: read-out: 5-HT2BR EC50; for 5-HT2BR Rmax ± S.E.M: value in parentheses.

Test [4] deals with T1, 5-HT2BR. Briefly: 5-HT2BR binding affinity (Ki), Table 8.
The subject of test [5] is wild-type (WT) and vesicular monoamine transporter 2 (VMAT2) heterozygous (HET) mice. In words: Tail suspension test (immobility time) in wild-type and VMAT2 heterozygous mice. In kind it is in vivo. The note with it: 30 min after administration; for immobility time during the tail suspension test: compared to vehicle.
Protocol: Tail suspension: This test was conducted as described in the literature (Acta Crystallographica Section D, 2010, 66:486-501). […] Immobility times were assessed over 6 min using MedAssociates software.
For test [6], the target named is T2, 5-HT2AR (Homo sapiens, UniProt P28223).
T2 construct: expressed in transfected cells; host or cells: Flp-In 293 T-Rex (tetracycline inducible)
T2 sequence (P28223 whole entry): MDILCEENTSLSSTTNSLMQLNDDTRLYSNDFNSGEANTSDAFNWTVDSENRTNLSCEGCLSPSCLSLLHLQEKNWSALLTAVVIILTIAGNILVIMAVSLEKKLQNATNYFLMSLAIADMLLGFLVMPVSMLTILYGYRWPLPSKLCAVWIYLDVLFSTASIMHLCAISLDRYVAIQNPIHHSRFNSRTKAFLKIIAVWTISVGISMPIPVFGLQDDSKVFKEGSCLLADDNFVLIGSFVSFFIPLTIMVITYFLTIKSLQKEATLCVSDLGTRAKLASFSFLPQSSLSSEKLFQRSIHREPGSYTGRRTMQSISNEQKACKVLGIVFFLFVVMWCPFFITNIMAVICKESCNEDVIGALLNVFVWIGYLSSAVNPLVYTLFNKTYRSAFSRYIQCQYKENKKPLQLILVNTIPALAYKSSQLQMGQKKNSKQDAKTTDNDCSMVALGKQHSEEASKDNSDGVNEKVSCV
Briefly: 5-HT2AR binding affinity (Ki), Table 8.

Test [7] addresses T2, 5-HT2AR. Briefly: Calcium flux assay (FLIPR, Fluo-4), 5-HT2AR stable cell line. In kind it is cell-based. Particulars: for 5-HT2AR Rmax ± S.E.M: value in parentheses.
Protocol: (§3) Stable cell lines for 5-HT2AR, 5-HT2BR and 5-HT2CR generated using the Flp-In 293 T-Rex Tetracycline inducible system (Invitrogen). Tetracycline-induced cells were seeded in 384-well poly-L-lysine plates at a density of 10,000 cells/well in DMEM containing 1% dialyzed FBS at least 16-24 hr before the calcium flux assay. On the day of the assay, the cells were incubated (20 ul/well) for 1 hr at 37° C. with Fluo-4 Direct dye (Invitrogen) reconstituted in FLIPR buffer (1×HBSS, 2.5 mM probenecid, and 20 mM HEPES, pH 7.4). After dye loading, cells were placed in a FLIPR^TETRA fluorescence imaging plate reader (Molecular Dynamics). Drug dilutions were prepared at 3× final concentration in drug buffer (1×HBSS, 20 mM HEPES, 0.1% BSA, 0.01% ascorbic acid, pH 7.4) and aliquoted into 384-well plates and placed in the FLIPR^TETRA for drug stimulation. The fluidics module and plate reader of the FLIPR^TETRA were programmed to read baseline fluorescence for 10s (1 read/s), then 10 ul of drug/well was added and read for 5 min (1 read/s). Fluorescence in each well was normalized to the average of the first 10 reads (i.e., baseline fluorescence). Then, the maximum-fold increase, which occurred within the first 60 s after drug addition, was determined and fold over baseline was plotted as a function of drug concentration. Data were normalized to % 5-HT stimulation and analyzed using “log(agonist) vs. response” in GraphPad Prism 9.0.
Test [8] concerns the target T3, 5-HT2CR (Homo sapiens, UniProt P28335).
T3 sequence (P28335 33-458): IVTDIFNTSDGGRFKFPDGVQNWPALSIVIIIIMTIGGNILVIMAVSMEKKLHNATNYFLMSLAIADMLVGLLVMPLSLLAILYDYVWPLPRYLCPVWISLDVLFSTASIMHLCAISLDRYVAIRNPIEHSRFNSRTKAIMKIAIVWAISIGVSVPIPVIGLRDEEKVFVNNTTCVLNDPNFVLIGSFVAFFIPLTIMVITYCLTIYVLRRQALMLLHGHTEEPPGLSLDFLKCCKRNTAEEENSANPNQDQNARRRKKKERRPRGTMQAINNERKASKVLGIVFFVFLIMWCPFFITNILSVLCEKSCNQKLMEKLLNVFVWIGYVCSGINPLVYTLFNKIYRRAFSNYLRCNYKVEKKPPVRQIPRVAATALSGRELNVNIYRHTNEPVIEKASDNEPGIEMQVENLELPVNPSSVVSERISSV
Briefly: Calcium flux assay (FLIPR, Fluo-4), 5-HT2CR stable cell line. In kind it is cell-based. The note with it: for 5-HT2CR Rmax ± S.E.M: value in parentheses.
Protocol: as §3

The target of test [9] is T3, 5-HT2CR. In words: 5-HT2CR binding affinity (Ki), Table 8.
[10] abbreviates: bracketed value below EC50, read-out: 5-HT2AR pEC50 ± S.E.M (converted).
Setting [11] is: bracketed value below Ki, read-out: 5-HT2BR pKi ± S.E.M (converted).
Where [12] appears, read: bracketed value below Ki, read-out: 5-HT2AR pKi ± S.E.M (converted).
Setting [13] is: bracketed value below Ki, read-out: 5-HT2CR pKi ± S.E.M (converted).

SMILES strings stand for the structures. Entries after “also recorded” stand apart in the source; their conditions may differ. Where two headings read alike, the source gives them in different places.

For the compound `CCN(CC)C(=O)[C@@H]1C=C2c3cccc4[nH]cc(c34)C[C@H]2N(C)C1` [LSD, reference compound], the “distance travelled in the open field, locomotion post injection (31-60 min)” value in the test on C57BL/6J mice [1] (0.3 mg/kg LSD) is “significantly higher”. In the test with C57BL/6J mice [2] (0.3 mg/kg LSD), the “head twitch responses (HTRs)” value is “stimulated”.

`C[C@@H]1C=C(c2c[nH]c3ncccc23)CN(C)C1` [compound 33, (R)-3-(1,5-dimethyl-1,2,5,6-tetrahydropyridin-3-yl)-1H-pyrrolo[2,3-b]pyridine]: the EC50 on 5-HT2BR [3] is 700 nM; at 5-HT2AR [7] (setting [10]), 110 nM; on 5-HT2CR [8] (read-out: 5-HT2CR EC50) it was 3250 nM. The “5-HT2BR Rmax ± S.E.M” value on 5-HT2BR [3] is recorded as “(50.5%”. The Ki on 5-HT2BR [4] (read-out: 5-HT2BR Ki) amounted to 440 nM; at 5-HT2AR [6] (read-out: 5-HT2AR Ki), 880 nM; on 5-HT2CR [9] (read-out: 5-HT2CR Ki) it was 480 nM. Further, the “immobility time during the tail suspension test, HET mice versus WTs given the same treatment” value in test [5] (1 mg/kg i.p., p=0.051) is “less time immobile”. The “immobility time during the tail suspension test” value in test [5] (VMAT2 HET mice, 0.5 mg/kg i.p.) is “reduced immobility time significantly”; in test [5] (VMAT2 HET mice, 1 mg/kg i.p., 1 mg/kg), “restored wild-type levels of mobility; also recorded: reduced immobility time significantly”; in test [5] (WT mice, 0.5 mg/kg i.p.) it was “no effects”; in test [5] (WT mice, 1 mg/kg i.p.) it was “no effects”. Moreover, the “distance travelled in the open field, locomotion post injection (31-60 min)” value with C57BL/6J mice [1] (1 mg/kg) is recorded as “do not enhance locomotion; also recorded: not different from one another”. Moreover, the “head twitch responses (HTRs)” value in the test with C57BL/6J mice [2] (1 mg/kg) is given as “neither 38 nor 33 induced substantial HTRs; also recorded: not different from each other”. Also, the “5-HT2AR Rmax ± S.E.M” value on 5-HT2AR [7] is “(73.3%”. For the same compound, the “5-HT2CR Rmax ± S.E.M” value at 5-HT2CR [8] is “(51.7%”.

In the case of `Cc1ncc(CCN2CC(c3c[nH]c4ncccc34)=C[C@@H](C)C2)cn1` [compound 40, (R)-3-(5-methyl-1-(2-(2-methylpyrimidin-5-yl)ethyl)-1,2,5,6-tetrahydropyridin-3-yl)-1H-pyrrolo[2,3-b]pyridine], at 5-HT2BR [3], the EC50 was 3820 nM. Further, the “5-HT2BR Rmax ± S.E.M” value at 5-HT2BR [3] is “(54.5%”. Also, the Ki is 3980 nM at 5-HT2BR [4] (setting [11]), 4090 nM on 5-HT2BR [4] (read-out: 5-HT2BR Ki), 398 nM on 5-HT2AR [6] (setting [12]) and 840 nM at 5-HT2CR [9] (read-out: 5-HT2CR Ki). Moreover, at 5-HT2AR [7], the “5-HT2AR EC50” value is “antagonist”. Also, on 5-HT2CR [8], the “5-HT2CR EC50” value is given as “antagonist”.

Take `Cc1ncc(CCN2CC(c3c[nH]c4ncccc34)=C[C@H](C)C2)cn1` [compound 41, (S)-3-(5-methyl-1-(2-(2-methylpyrimidin-5-yl)ethyl)-1,2,5,6-tetrahydropyridin-3-yl)-1H-pyrrolo[2,3-b]pyridine]: the “5-HT2BR EC50” value at 5-HT2BR [3] was “antagonist”. The Ki on 5-HT2BR [4] (read-out: 5-HT2BR Ki) was 820 nM; at 5-HT2AR [6] (setting [12]), 25.7 nM; on 5-HT2AR [6] (read-out: 5-HT2AR Ki), 25 nM; at 5-HT2CR [9] (setting [13]), 28.8 nM; at 5-HT2CR [9] (read-out: 5-HT2CR Ki) it was 30 nM. At 5-HT2AR [7], the “5-HT2AR EC50” value was “antagonist”. In addition, the “5-HT2CR EC50” value at 5-HT2CR [8] is listed as “antagonist”.

For the compound `C[C@@H]1C=C(c2c[nH]c3ncccc23)CN(CC2CC2)C1` [compound 45, (R)-3-(1-(cyclopropylmethyl)-5-methyl-1,2,5,6-tetrahydropyridin-3-yl)-1H-pyrrolo[2,3-b]pyridine], the “5-HT2BR EC50” value on 5-HT2BR [3] was “antagonist”. In addition, the Ki is > 10000 nM on 5-HT2BR [4] (read-out: 5-HT2BR Ki), 2880 nM at 5-HT2AR [6] (setting [12]), 2920 nM at 5-HT2AR [6] (read-out: 5-HT2AR Ki) and 4410 nM on 5-HT2CR [9] (read-out: 5-HT2CR Ki). Also, the EC50 at 5-HT2AR [7] (setting [10]) was 457 nM; on 5-HT2AR [7] (read-out: 5-HT2AR EC50), 450 nM. Further, the “5-HT2AR Rmax ± S.E.M” value on 5-HT2AR [7] is recorded as “(25.0%”. Besides, the “5-HT2CR EC50” value at 5-HT2CR [8] is “antagonist”.

For the compound `C[C@H]1C=C(c2c[nH]c3ncccc23)CN(CC2CC2)C1` [compound 46, (S)-3-(1-(cyclopropylmethyl)-5-methyl-1,2,5,6-tetrahydropyridin-3-yl)-1H-pyrrolo[2,3-b]pyridine], on 5-HT2BR [3], the EC50 was determined as 1170 nM. Besides, the “5-HT2BR Rmax ± S.E.M” value on 5-HT2BR [3] is listed as “(43.8%”. Also, the values for the Ki on 5-HT2BR [4] (read-out: 5-HT2BR Ki), at 5-HT2AR [6] (read-out: 5-HT2AR Ki) and on 5-HT2CR [9] (read-out: 5-HT2CR Ki) were 2140 nM, 2440 nM and 780 nM, respectively. Besides, the “5-HT2AR EC50” value at 5-HT2AR [7] is “antagonist”. Besides, the “5-HT2CR EC50” value on 5-HT2CR [8] is reported as “antagonist”.

On to `C[C@@H]1C=C(c2c[nH]c3ncccc23)CN(Cc2cnco2)C1` [compound 47, (R)-5-((3-methyl-5-(1H-pyrrolo[2,3-b]pyridin-3-yl)-3,6-dihydropyridin-1(2H)-yl)methyl)oxazole], for which the EC50 was 940 nM at 5-HT2BR [3], 977 nM at 5-HT2AR [7] (setting [10]), 990 nM at 5-HT2AR [7] (read-out: 5-HT2AR EC50) and > 10000 nM at 5-HT2CR [8] (read-out: 5-HT2CR EC50). Besides, on 5-HT2BR [3], the “5-HT2BR Rmax ± S.E.M” value is listed as “(75.8%”. The figures for the Ki at 5-HT2BR [4] (read-out: 5-HT2BR Ki), at 5-HT2AR [6] (read-out: 5-HT2AR Ki) and at 5-HT2CR [9] (read-out: 5-HT2CR Ki) were > 10000 nM, 7190 nM and > 10000 nM, respectively. Besides, the “5-HT2AR Rmax ± S.E.M” value on 5-HT2AR [7] is “(68.3%”.

On to `C1=C(c2c[nH]c3ncccc23)CNCC1` [compound 49, 3-(1,2,5,6-tetrahydropyridin-3-yl)-1H-pyrrolo[2,3-b]pyridine], for which the EC50 is 630 nM at 5-HT2BR [3]; 151 nM on 5-HT2AR [7] (setting [10]); 832 nM on 5-HT2CR [8] (bracketed value below EC50, read-out: 5-HT2CR pEC50 ± S.E.M (converted)); 820 nM at 5-HT2CR [8] (read-out: 5-HT2CR EC50). At 5-HT2BR [3], the “5-HT2BR Rmax ± S.E.M” value is given as “(34.8%”. Further, the values for the Ki on 5-HT2BR [4] (setting [11]), at 5-HT2AR [6] (setting [12]) and at 5-HT2CR [9] (setting [13]) were 257 nM, 398 nM and 288 nM, respectively. Further, at 5-HT2AR [7], the “5-HT2AR Rmax ± S.E.M” value is “(43.9%”. The “5-HT2CR Rmax ± S.E.M” value on 5-HT2CR [8] is on record as “(45.9%”.
